Assays:
[1] = tested on: neuropathic pain induced by spinal nerve ligation among rats; test: Y-Maze test: spatial memory, spinal nerve ligation model; type: in vivo, rat
Procedure: The effects of the prolonged and preventive administration of memantine were first of all studied among rats. The model used was that of the ligation of the spinal nerve L5 (herein after called SNL for spinal nerve ligation) among rats. The emergence of neuropathic pain is assessed according to the following criteria: • the behavior of the rat following the spinal nerve ligation (SNL), • cognition, and • molecular events, including the expression of phosphorylated tyrosine 1472 of the NR2B sub-unit of the NMDA receptor at the spinal level.
The study was based on the comparison of the two main groups of animals. The first group was a control group. The rats of the control group, designated as “Sham” in the graphs, underwent no operation. They are used to assess the role of the injected substances on the individual, without there being any emergence of neuropathic pain.
Two sub-groups were set up in this group: • one sub-group treated with the vehicle which is a saline solution of NaCl 0.9% by mass, in a dose of 1 mL/kg/rat/day, by intraperitoneal injection; and • one sub-group treated with memantine in a dose of 20 mg/kg/rat/day, by intraperitoneal injection. […]
The rat is placed in the middle of a chamber with three arms, each 40 cm long and 4 cm wide. The rat moves around freely in the different arms for five minutes and the number of entries into each of the arms is counted up. […]

[2] = tested on: post-operative neuropathic pain; test: Phase 2 clinical trial, pain self-evaluation after mastectomy and axillary dissection; type: in vivo, human; settings: follow-up after operation, self-evaluation scale 1 to 10; preliminary results
Procedure: A phase 2 clinical trial on the development and evaluation of neuropathic pain was conducted among patients having to undergo mastectomy and axillary dissection. The patients were separated randomly into two groups: • a control group who were to receive lactose as a placebo; and • a group treated by memantine hydrochloride (EBIXA®).
The clinical trial protocol is described in detail in the form referenced NTC014536314 (http://clinicaltrials.gov). […]
The patient's pain was evaluated by asking them to assess their own pain on a numerical scale ranging from 1 to 10 (10 being the maximum stage of pain) for the two weeks following the operation and for three months following the operation. […] The development of neuropathic pain is also evaluated by the DN4 questionnaire on neuropathic pain, and the Questionnaire sur la Douleur de Saint-Antoine (QDSA) or “Saint-Antoine pain questionnaire”. […]
FIG. 7 is a graph showing the preliminary results obtained on the first […] having taken part in these clinical trials (six patients had received the placebo composition and seven patients had received the memantine-hydrochloride-based composition), their pain being evaluated by the method of self-evaluation on a scale of 1 to 10. […]

CC12CC3CC(C)(C1)CC(N)(C3)C2 [memantine, 1-amino-3,5-dimethyl-adamantane]
capacity of exploration (time passed in exploring the arms) ([1]; SNL rats, memantine for the 4 days preceding operation and days following): this capacity is restored
capacity of exploration (time passed in exploring the arms) ([1]; rats without ligation, injection for one week, compared with normal rats): does not significantly modify the capacity of exploration of the rat
level of pain versus placebo [2]: patients having received the placebo have a higher level of pain than patients having received memantine
